Columns and labels:
[1] = target: T1, Avi-KRAS WT (1-169) GppNHp/RAF1 RBD-3xFLAG (52-151) (Homo sapiens, UniProt P01116); test: Raf1-KRAS WT-GppNHP disruption HTRF assay (Biological Example 1); assay type: binding
T1 construct: Avi-KRAS WT (1-169)
Outline: (§1)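 Measured with a KRAS/RAF1 HTRF assay at pH 7.5 in 10% DMSO, with two 1 h room-temperature incubations with shaking.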

[2] = target: T2, Avi-KRAS G12V (2-169) GTP/RAF1 RBD-3xFLAG (51-131) (Homo sapiens, UniProt P01116, G12V); test: Raf1-KRAS G12V-GTP disruption HTRF assay (Biological Example 3); assay type: binding; conditions: KRAS G12V, GTP-loaded
T2 construct: Avi-KRAS G12V (2-169)
T2 sequence (P01116 2-169 isoform P01116-2 G12V): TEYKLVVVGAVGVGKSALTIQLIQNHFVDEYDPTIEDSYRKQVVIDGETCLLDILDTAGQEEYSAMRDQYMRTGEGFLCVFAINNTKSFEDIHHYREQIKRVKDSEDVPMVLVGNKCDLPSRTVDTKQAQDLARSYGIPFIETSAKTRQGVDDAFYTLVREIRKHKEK
Outline: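 50 nM Avi-KRAS (2-169) GTP/RAF1 RBD complex; 75 nM RBD-Avi; pH 7.5 Tris buffer, 10% DMSO; cpd 30 μM top, 3x, 10 pts; 1 h RT, 700 rpm; HTRF, % of DMSO.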

[3] = target: T3, Avi-KRAS G12R (1-169) GppNHp/RAF1 RBD-3xFLAG (52-151) (Homo sapiens, UniProt P01116, G12R); test: Raf1-KRAS G12R-GppNHP disruption HTRF assay (Biological Example 1); assay type: binding
T3 construct: Avi-KRAS G12R (1-169)
T3 sequence (P01116 1-169 isoform P01116-2 G12R): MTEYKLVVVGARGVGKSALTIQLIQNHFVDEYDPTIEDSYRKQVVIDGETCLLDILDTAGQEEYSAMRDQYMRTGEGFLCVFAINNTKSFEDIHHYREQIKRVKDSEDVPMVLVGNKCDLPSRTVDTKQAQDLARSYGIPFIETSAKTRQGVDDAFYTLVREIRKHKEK
Outline: as §1

[4] = target: T4, Avi-KRAS G12V (1-169) GppNHp/RAF1 RBD-3xFLAG (52-151) (Homo sapiens, UniProt P01116, G12V); test: Raf1-KRAS G12V-GppNHP disruption HTRF assay (Biological Example 1); assay type: binding
T4 construct: Avi-KRAS G12V (1-169)
T4 sequence (P01116 1-169 isoform P01116-2 G12V): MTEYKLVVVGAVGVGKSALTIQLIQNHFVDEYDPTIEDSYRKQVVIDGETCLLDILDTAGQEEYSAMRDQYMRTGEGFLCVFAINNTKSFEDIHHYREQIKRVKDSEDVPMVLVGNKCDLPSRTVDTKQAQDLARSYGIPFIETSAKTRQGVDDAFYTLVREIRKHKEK
Outline: as §1

[5] = target: T5, Avi-KRAS G12D (1-169) GppNHp/RAF1 RBD-3xFLAG (52-151) (Homo sapiens, UniProt P01116, G12D); test: Raf1-KRAS G12D-GppNHP disruption HTRF assay (Biological Example 1); assay type: binding
T5 construct: Avi-KRAS G12D (1-169)
T5 sequence (P01116 1-169 isoform P01116-2 G12D): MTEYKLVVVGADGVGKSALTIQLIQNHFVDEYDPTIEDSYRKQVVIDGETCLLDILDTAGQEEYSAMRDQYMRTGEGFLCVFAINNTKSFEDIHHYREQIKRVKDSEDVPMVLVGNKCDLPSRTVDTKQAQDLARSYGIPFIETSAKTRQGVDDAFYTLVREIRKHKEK
Outline: as §1

SW620 cells (KRAS G12V) = test: Cell-based pERK HTRF assay in SW620 cell (Biological Example 4)
Outline: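 SW620 cells were treated for 4 h with compound in a 9-point half-log series from 1 μM top (0.25% DMSO), then lysed. Phospho-ERK was detected by HTRF with d2 and Eu cryptate antibodies after 4–24 h at room temperature, read at 615 nm emission.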

[6] = Homo sapiens, SW-620, SW620 (KRAS G12V) cells
[7] = Homo sapiens, SW-620, SW620 (KRAS G12V) cells, pERK HTRF
[8] = KRAS WT, GppNHp-loaded, class symbols
[9] = KRAS G12R, GppNHp-loaded, class symbols
[10] = KRAS G12V, GppNHp-loaded, class symbols
[11] = KRAS G12D, GppNHp-loaded, class symbols
[12] = Homo sapiens, SW-620, SW620 (KRAS G12V) cells, pERK HTRF, class symbols
[13] = SW620 (KRAS G12V) cells, pERK HTRF

T1 sequence (P01116 1-169 isoform P01116-2): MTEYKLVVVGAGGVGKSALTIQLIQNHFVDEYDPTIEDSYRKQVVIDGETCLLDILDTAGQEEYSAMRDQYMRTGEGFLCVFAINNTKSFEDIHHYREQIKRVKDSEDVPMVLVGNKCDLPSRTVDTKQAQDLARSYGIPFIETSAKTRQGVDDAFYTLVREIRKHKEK

Structure (SMILES) | IC50 ([1]; KRAS WT-GppNHp/RAF1 RBD HTRF) | IC50 [2] | IC50 ([3]; KRAS G12R-GppNHp/RAF1 RBD HTRF) | IC50 ([4]; KRAS G12V-GppNHp/RAF1 RBD HTRF) | IC50 ([5]; KRAS G12D-GppNHp/RAF1 RBD HTRF) | IC50 (SW620 cells (KRAS G12V); [6]) | IC50 (SW620 cells (KRAS G12V); [7]) | IC50 [1, 8] | IC50 [3, 9] | IC50 [4, 10] | IC50 [5, 11] | IC50 (SW620 cells (KRAS G12V); [12]) | IC50 (SW620 cells (KRAS G12V); SW620 (KRAS G12V) cells) | IC50 (SW620 cells (KRAS G12V); [13]) | IC50 ([1]; KRAS WT, GppNHp-loaded, Table 11) | IC50 ([3]; KRAS G12R, GppNHp-loaded, Table 11) | IC50 ([4]; KRAS G12V, GppNHp-loaded, Table 11) | IC50 ([5]; KRAS G12D, GppNHp-loaded, Table 11)
CCC(=O)N1CC[C@@H](N(CC)c2nc(OC[C@@]34CCCN3C[C@H](F)C4)nc3c(F)c(-c4ccc(F)c5sc(N)c(C#N)c45)c(C(F)(F)F)cc23)C1 [Compound 327] | 100 to 1000 nM | 100 to 1000 nM | 100 to 1000 nM | 100 to 1000 nM | 100 to 1000 nM | < 100 nM | < 100 nM |  |  |  |  |  |  |  |  |  |  | 
CCN(c1nc(OC[C@@]23CCCN2C[C@H](F)C3)nc2c(F)c(-c3ccc(F)c4sc(N)c(C#N)c34)c(C(F)(F)F)cc12)[C@H]1CCN(C(=O)C2C[C@@H]2F)C1 (stereo partly shown) [Compound 692] |  | ≤ 100 nM |  |  |  | < 100 nM |  | < 100 nM | < 100 nM | < 100 nM | < 100 nM | < 100 nM |  |  |  |  |  | 
CCN(c1nc(OC[C@@]23CCCN2C[C@H](F)C3)nc2c(F)c(-c3ccc(F)c4sc(N)c(C#N)c34)c(C(F)(F)F)cc12)[C@H]1CC(=O)N(C)C1 (atropisomer, axis not shown) [Compound 614] |  | 100 to 1000 nM |  |  |  | < 100 nM |  | < 100 nM | < 100 nM | < 100 nM | < 100 nM | < 100 nM |  |  |  |  |  | 
CCN(c1nc(OC[C@@]23CCCN2C[C@H](F)C3)nc2c(F)c(-c3ccc(F)c4sc(N)c(C#N)c34)c(C(F)(F)F)cc12)[C@H]1CCN(C(=O)CC(F)F)C1 (atropisomer, axis not shown) [Compound 611] |  | ≤ 100 nM |  |  |  | < 100 nM |  | < 100 nM | < 100 nM | < 100 nM | < 100 nM | < 100 nM |  |  |  |  |  | 
CCN(c1nc(OC[C@@]23CCCN2C[C@H](F)C3)nc2c(F)c(-c3ccc(F)c4sc(N)c(C#N)c34)c(C(F)(F)F)cc12)[C@H]1CCN(C(=O)[C@H]2CCO2)C1 (atropisomer, axis not shown) [Compound 577] |  | ≤ 100 nM |  |  |  | < 100 nM |  | < 100 nM | < 100 nM | < 100 nM | < 100 nM | < 100 nM |  |  |  |  |  | 
CCN(c1nc(OC[C@]23CCCN2C[C@H](F)C3)nc2c(F)c(-c3ccc(F)c4sc(N)c(C#N)c34)c(C(F)(F)F)cc12)[C@H]1CCN(C(=O)C(C)C)C1 [Compound 705] |  | 100 to 1000 nM |  |  |  | < 100 nM |  | < 100 nM | < 100 nM | 100 to 1000 nM | < 100 nM | < 100 nM |  |  |  |  |  | 
CC(=O)N1CC(N(C)c2nc(OCC34CCCN3CC(F)C4)nc3c(F)c(-c4ccc(F)c5sc(N)c(C#N)c45)c(C(F)(F)F)cc23)CC1C (stereo not shown) [Compound 291] | 100 to 1000 nM | 100 to 1000 nM | 100 to 1000 nM | 100 to 1000 nM | 100 to 1000 nM |  |  |  |  |  |  |  | < 100 nM | < 100 nM |  |  |  | 
C=C(C)C(=O)N1CC[C@H](N(CC)c2nc(OC[C@@]34CCCN3C[C@H](F)C4)nc3c(F)c(-c4ccc(F)c5sc(N)c(C#N)c45)c(C(F)(F)F)cc23)C1 (atropisomer, axis not shown) [Compound 673] |  | 100 to 1000 nM |  |  |  | < 100 nM |  | < 100 nM | < 100 nM | < 100 nM | < 100 nM | < 100 nM |  |  |  |  |  | 
CC(=O)N1CC[C@H](N(c2nc(OC[C@@]34CCCN3C[C@H](F)C4)nc3c(F)c(-c4ccc(F)c5sc(N)c(C#N)c45)c(C(F)(F)F)cc23)C2CC2)C1 (atropisomer, axis not shown) [Compound 608] |  | 100 to 1000 nM |  |  |  | < 100 nM |  | 100 to 1000 nM | 100 to 1000 nM | 100 to 1000 nM | < 100 nM | < 100 nM |  |  |  |  |  | 
CCN(c1nc(OC[C@@]23CCCN2C[C@H](F)C3)nc2c(F)c(-c3ccc(F)c4sc(N)c(C#N)c34)c(C(F)(F)F)cc12)[C@H]1CCN(C(=O)N(C)C)[C@@H]1C (atropisomer, axis not shown) [Compound 749] |  | ≤ 100 nM |  |  |  | < 100 nM |  | < 100 nM | < 100 nM | < 100 nM | < 100 nM | < 100 nM |  |  |  |  |  | 
CCN(c1nc(OC[C@@]23CCCN2C[C@H](F)C3)nc2c(F)c(-c3ccc(F)c4sc(N)c(C#N)c34)c(C(F)(F)F)cc12)[C@H]1CCN(C(=O)N2CC(OC)C2)C1 (atropisomer, axis not shown) [Compound 607] |  | ≤ 100 nM |  |  |  | < 100 nM |  | < 100 nM | < 100 nM | < 100 nM | < 100 nM | < 100 nM |  |  |  |  |  | 
CCN(c1nc(OC[C@@]23CCCN2C[C@H](F)C3)nc2c(F)c(-c3ccc(F)c4sc(N)c(C#N)c34)c(C(F)(F)F)cc12)[C@H]1C[C@@H](C)N(C(=O)[C@H]2CCO2)C1 (atropisomer, axis not shown) [Compound 752] |  | 100 to 1000 nM |  |  |  | < 100 nM |  | 100 to 1000 nM | < 100 nM | 100 to 1000 nM | < 100 nM | < 100 nM |  |  |  |  |  | 
C/C=C/C(=O)N1CC[C@H](N(CC)c2nc(OC[C@@]34CCCN3C[C@H](F)C4)nc3c(F)c(-c4ccc(F)c5sc(N)c(C#N)c45)c(C(F)(F)F)cc23)C1 (atropisomer, axis not shown) [Compound 674] |  | ≤ 100 nM |  |  |  | 100 to 1000 nM |  | < 100 nM | < 100 nM | < 100 nM | < 100 nM | < 100 nM |  |  |  |  |  | 
CCN(c1nc(OC[C@@]23CCCN2C[C@H](F)C3)nc2c(F)c(-c3ccc(F)c4sc(N)c(C#N)c34)c(C(F)(F)F)cc12)[C@@H]1CCN(C(=O)C2CC2)C1 [Compound 329] | 100 to 1000 nM | 100 to 1000 nM | 100 to 1000 nM | 100 to 1000 nM | 100 to 1000 nM | < 100 nM | < 100 nM |  |  |  |  |  |  |  |  |  |  | 
CN(C)C(=O)c1cc2n(n1)CCN(c1nc(OC[C@@]34CCCN3C[C@H](F)C4)nc3c(F)c(-c4ccc(F)c5sc(N)c(C#N)c45)c(C(F)(F)F)cc13)C2 [Compound 355] | 100 to 1000 nM | 100 to 1000 nM | 100 to 1000 nM | 100 to 1000 nM | 100 to 1000 nM | < 100 nM | < 100 nM |  |  |  |  |  |  |  |  |  |  | 
CC(=O)N1CC[C@@H](N(C)c2nc(OC[C@@]34CCCN3C[C@H](F)C4)nc3c(F)c(-c4ccc(F)c5sc(N)c(C#N)c45)c(C(F)(F)F)cc23)[C@H]1C (single isomer, unassigned) [Compound 193] |  | 100 to 1000 nM |  |  |  | < 100 nM |  |  |  |  |  |  |  | < 100 nM | < 100 nM | < 100 nM | < 100 nM | < 100 nM
CCN(c1nc(OC[C@@]23CCCN2C[C@H](F)C3)nc2c(F)c(-c3ccc(F)c4sc(N)c(C#N)c34)c(C(F)(F)F)cc12)[C@H]1CCN(C(=O)OC)C1 [Compound 394] | < 100 nM | 100 to 1000 nM | < 100 nM | < 100 nM | < 100 nM | < 100 nM | < 100 nM |  |  |  |  |  |  |  |  |  |  | 
CCN(c1nc(OC[C@@]23CCCN2C[C@H](F)C3)nc2c(F)c(-c3ccc(F)c4sc(N)c(C#N)c34)c(C(F)(F)F)cc12)[C@H]1CCN(C(=O)C2CN(C(C)=O)C2)C1 (atropisomer, axis not shown) [Compound 638] |  | ≤ 100 nM |  |  |  | < 100 nM |  | < 100 nM | < 100 nM | < 100 nM | < 100 nM | < 100 nM |  |  |  |  |  | 
C[C@@H]1[C@H](N(C)c2nc(OC[C@@]34CCCN3C[C@H](F)C4)nc3c(F)c(-c4ccc(F)c5sc(N)c(C#N)c45)c(C(F)(F)F)cc23)CC(=O)N1C [Compound 440] | 100 to 1000 nM |  | 100 to 1000 nM | 100 to 1000 nM | 100 to 1000 nM |  | < 100 nM |  |  |  |  |  |  |  |  |  |  | 
CN(Cc1cccnc1N)c1nc(OC[C@@]23CCCN2C[C@H](F)C3)nc2c(F)c(-c3ccc(F)c4sc(N)c(C#N)c34)c(C(F)(F)F)cc12 [Compound 390] | 100 to 1000 nM |  | 100 to 1000 nM | < 100 nM | 100 to 1000 nM |  | < 100 nM |  |  |  |  |  |  |  |  |  |  | 
